Read-outs that look alike come from different tables or passages of the source.
Tests used:
[1] = system: C. pipiens SR strain larvae; experiment: Larval bioassay, SR strain (OP-resistant); details: for Mortality at 300 µM, SR: fourth-instar larvae, 24 hours exposure; for mortality at 300 µM: Culex pipiens, 24 h, read-out: Mortality at 300 µM, SR
Excerpt: (§1) Three C. pipiens strains were used: the susceptible reference Slab strain, homozygous for ace-1 ^S [39], the resistant reference SR strain, carrying the genetical background of Slab but homozygous for the G119S mutation, allele ace-1 ^R [21] and the Ducos strain, carrying the genetical background of Slab but homozygous for an ace-1 duplication, with one ace-1^S and ace-1^R copy in tandem. Culex pipiens heterozygous larvae (Slab×SR) were obtained by crossing Slab males and SR females.
(§2) Insecticidal activity was determined by performing bioassays on fourth-instar larvae as described in [42]. Each compound was dissolved in ethanol. Propoxur (CX) and chlorpyrifos (OP) were used as references. For each compound, we first tested mortality after a 24-hour exposure at 300 µM. […] Mortality data were analyzed by the log-probit program.

[2] = system: C. pipiens Slab strain larvae; experiment: Larval bioassay, Slab strain (OP-susceptible); details: for Mortality at 300 µM, Slab: fourth-instar larvae, 24 hours exposure; for mortality at 300 µM: Culex pipiens, 24 h, read-out: Mortality at 300 µM, Slab
Excerpt: as §1, with “females. Two A. gambiae reference strains (S molecular form) were used: the susceptible strain Kisumu, homozygous for ace-1 ^S, collected in Kenya in 1953 and maintained since then under laboratory conditions and the resistant Acerkis strain, carrying the genetical background of Kisumu but homozygous for an ace-1^R allele from a population collected in Bobo-Dioulasso, Burkina Faso [41].” for “females.”
as §2, with “program. This program takes into account natural mortality and provides lethal doses (LD) and slopes for each mortality line; it also computes resistance ratios (RR) for each LD, with 95% confidence intervals.” for “program.”

G119S AChE1 = biological target: T1, G119S AChE1 (Culex pipiens, UniProt Q86GC8, G247S); experiment: biochemical; assay type: biochemical
T1 construct: made in house; host or cells: Drosophila S2 cells
Method: Production of C. pipiens WT and mutated AChE1s in Drosophila S2 cells was already described. The chemical library (ChemBridge, 3,000 compounds) screening was performed in duplicate on G119S recombinant AChE1. Chemicals were made soluble in ethanol or dimethylsulphoxide (DMSO), and then diluted at 300 µM in ethanol for storage. […] PTF analogs were analyzed in dose-response experiments (10-fold serial dilutions from 3 mM to 30 nM), using recombinant WT and G119S AChE1 or mosquito head extracts (heads cut from frozen mosquitoes, homogenized in 400 µl PB containing 1% Triton X-100 and cleared by centrifugation at 9,000×g for 3 min). Depending on compound availability, two to five replicates were performed with distinct batches of enzyme. […] IC50 was estimated by nonlinear least square regression. IC50 was also measured on AChE1 from susceptible and resistant mosquito larvae extracts.

WT AChE1 = WT AChE1 (Culex pipiens, UniProt Q86GC8); experiment: AChE assay (Ellman), dose-response on recombinant WT AChE1; assay type: biochemical; design: made in house; host or cells: Drosophila S2 cells
Method: Production of C. pipiens WT and mutated AChE1s in Drosophila S2 cells was already described. The chemical library (ChemBridge, 3,000 compounds) screening was performed in duplicate on G119S recombinant AChE1. Chemicals were made soluble in ethanol or dimethylsulphoxide (DMSO), and then diluted at 300 µM in ethanol for storage. Compounds (30 µM final concentration) were incubated for 15 min at room temperature with 100 µl of G119S recombinant AChE1 then 100 µl of substrate (acetylthiocholine, 1.6 mM, Sigma-Aldrich) was added and the residual activity was quantified by measuring the optical density at 412 nm, as described by Ellman et al.. PTF analogs were analyzed in dose-response experiments (10-fold serial dilutions from 3 mM to 30 nM), using recombinant WT and G119S AChE1 or mosquito head extracts (heads cut from frozen mosquitoes, homogenized in 400 µl PB containing 1% Triton X-100 and cleared by centrifugation at 9,000×g for 3 min). Depending on compound availability, two to five replicates were performed with distinct batches of enzyme. […] IC50 was estimated by nonlinear least square regression. IC50 was also measured on AChE1 from susceptible and resistant mosquito larvae extracts.

[3] = recombinant OP-insensitive G119S C. pipiens AChE1, 15 min incubation, acetylthiocholine, read-out: IC50 G119S
[4] = recombinant wild-type C. pipiens AChE1, 15 min incubation, acetylthiocholine, read-out: IC50 WT

Compound	Mortality at 300 µM, SR [1] [%]	Mortality at 300 µM, Slab [2] [%]	mortality at 300 µM [1] [%]	mortality at 300 µM [2] [%]	IC50 (G119S AChE1) [µM]	IC50 (WT AChE1) [µM]	IC50 (G119S AChE1; [3]) [µM]	IC50 (WT AChE1; [4]) [µM]
CCOP(=O)(OCC)Oc1nc(Cl)c(Cl)cc1Cl [Chlorpyrifos-oxon, reference compound]	100	100						
COP(=O)(OC)OC=C(Cl)Cl [Dichlorvos, reference compound]			100	100	2	0.45		
C=CCN1C(=O)NC(=O)C(=Cc2ccc(C)o2)C1=O [PTF-1]	0	0					2.2	3
Cc1ccc(C=C2C(=O)NC(=O)N(C3CCCCC3)C2=O)o1 [PTF-2]	53	12					5.5	12.6
Cc1ccc(N2C(=O)NC(=O)C(=Cc3ccc(C)o3)C2=O)cc1 [PTF-4]	100	78					14	111
Cc1ccc(C=C2C(=O)NC(=O)N(c3ccccc3C)C2=O)o1 [PTF-5]	0	0					1.1	1.4
Cc1cccc(N2C(=O)NC(=O)C(=Cc3ccc(C)o3)C2=O)c1 [PTF-6]	0	0					4.4	4
Cc1ccc(C=C2C(=O)NC(=O)N(c3ccc(C)c(C)c3)C2=O)o1 [PTF-7]	100	100					35	424
CCc1ccc(N2C(=O)NC(=O)C(=Cc3ccc(C)o3)C2=O)cc1 [PTF-8]	100	60					19	312
Cc1ccc(C=C2C(=O)NC(=O)N(c3ccc(C(C)C)cc3)C2=O)o1 [PTF-9]	39	19					21.5	132
COc1ccccc1N1C(=O)NC(=O)C(=Cc2ccc(C)o2)C1=O [PTF-11]	0	0					1	1.3
COc1cccc(N2C(=O)NC(=O)C(=Cc3ccc(C)o3)C2=O)c1 [PTF-12]	88	46					6	54
CCOc1ccc(N2C(=O)NC(=O)C(=Cc3ccc(C)o3)C2=O)cc1 [PTF-13]	96	64					89	236
COc1ccc(OC)c(N2C(=O)NC(=O)C(=Cc3ccc(C)o3)C2=O)c1 [PTF-14]	0	0					2	2
Cc1ccc(C=C2C(=O)NC(=O)N(c3ccc(C(=O)O)cc3)C2=O)o1 [PTF-15]	0	0					12.9	9
Cc1ccc(C=C2C(=O)NC(=O)N(Cc3ccco3)C2=O)o1 [PTF-16]	100	80					37	260
Cc1ccc(C=C2C(=O)NC(=O)N(c3ccc(F)cc3)C2=O)o1 [PTF-17]	90	15					8	5
Cc1ccc(C=C2C(=O)NC(=O)N(c3ccccc3F)C2=O)o1 [PTF-18]	0	0					1.8	5.3
Cc1ccc(C=C2C(=O)NC(=O)N(CCc3ccc(F)cc3)C2=O)o1 [PTF-19]	0	0					3.7	3.3
CCOP(=O)(OCC)Oc1ccc([N+](=O)[O-])cc1 [Paraoxon, reference compound]	100	100						
Nc1c2c(nc3ccccc13)CCCC2 [Tacrine, reference compound]			95	85				

From publication PMC3466212, “Novel AChE Inhibitors for Sustainable Insecticide Resistance Management” (PLoS ONE, 2012)
